Measurements taken from PMC3975428, “Dimers of G-Protein Coupled Receptors as Versatile Storage and Response Units” (International Journal of Molecular Sciences, 2014).
Values belong to the molecule of their own block, whether it stands above or below them. No end group written: not given here.

B1: human neuropeptide Y Y2 receptor expressed in CHO cells (receptor, UniProt P49146 1-381, looked up)
chain: MGPIGAEADENQTVEEMKVEQYGPQTTPRGELVPDPEPELIDSTKLIEVQVVLILAYCSIILLGVIGNSLVIHVVIKFKSMRTVTNFFIANLAVADLLVNTLCLPFTLTYTLMGEWKMGPVLCHLVPYAQGLAVQVSTITLTVIALDRHRCIVYHLESKISKRISFLIIGLAWGISALLASPLAIFREYSLIEIIPDFEIVACTEKWPGEEKSIYGTVYSLSSLLILYVLPLGIISFSYTRIWSKLKNHVSPGAANDHYHQRRQKTTKMLVCVVVVFAVSWLPLHAFQLAVDIDSQVLDLKEYKLIFTVFHIIAMCSTFANPLLYGWMNSNYRKAFLSAFRCEQRLDAIHSEVSVTFKAKKNLEVRKNSGPNDSFTEATNV
notes: neuropeptide Y receptor type 2 (Y2), human cDNA in pcDNA 3.1+; Assayed in particulates (membranes) of the cells and in digitonin/cholate lysates of them; also called hY2 receptor; CHO-Y2; source: CHO-K1, stably expressed (cDNA in pcDNA 3.1+), postnuclear particulates, solubilised with digitonin and cholate

Key:
[1] = system: 180 kDa heteropentamer and 90 kDa monomer-Gi α of Y2 receptor; assay: Stability of agonist binding of 180 kDa and 90 kDa Y2 complexes to reagents; format: biochemical, rabbit; conditions: for sensitivity of 180 kDa labeled material to K^+: 0.3 M K^+ (as KCl or KI)
From the text: Figure 6. Stability and affinity of agonist binding differs greatly for heteropentamer and monomer forms of the rabbit kidney Y2 receptor. (A) Y2 agonist attached to 180 kDa heteropentamer is recovered completely by 10% polyethyleneglycol (PEG) at 0.3 M K^+ (The data are averages of six gradients, ±1 S.E.).
The stability and affinity of agonist association with CHO-Y2 receptors could also be analyzed at the level of dimers and monomers by extraction and precipitation procedures coupled to competition binding assays (Figure 6).
The pellets were then counted in a scintillation counter.
(§1) Rabbit kidney postmitochondrial particulates, rabbit piriform cortex and hypothalamic crude synaptosomes and CHO cell postnuclear particulates were prepared as described previously. After solubilization of particulates at 10 mM each of digitonin and sodium cholate in buffer A or B, the lysates were spun for 10 min at 1000× g to remove debris, and the supernatants sedimented for periods indicated in figure captions at 218,000× gmax through linear 5%–20% sucrose gradients (10 mL, made in buffer A). The gradients were divided by bottom dripping in 23 fractions of 0.45 mL. The sedimentation positions were calibrated with [^125I]-labeled bovine γ-globulin (158 kDa), human iron-saturated transferrin (75 kDa) and ovalbumin (44 kDa), and with colorized myosin (211 kDa), producing a linear relation of migration to molecular weight (R^2 > 0.99).

[2] = system: 180 kDa heteropentamer (Y2 receptor dimer, G-protein trimer); assay: Nucleotide labeling / conversion of 180 kDa heteropentamer to 90 kDa Gi3α-receptor monomer; format: biochemical; conditions: 1–5 mM Mg^2+, micromolar GDP or GγS
Description: The receptors were labeled for 30 min at 25 °C in respective particulates (50 μg protein/assay), employing not more than 50 pM [^125I]-labeled agonist peptides (as stated in individual experiments). Higher molar inputs of agonist peptides would produce significant Gα activation within short exposures (e.g., [24, 53]). The basal assay buffer contained 0.2% proteinase-free bovine serum albumin, 20 mM hepes.NaOH (pH 7.4), 1 mM diisopropylfluorophosphate, 0.04% bacitracin, and 10 μg/mL each of proteinase inhibitors aprotinin, bestatin, chymostatin, leupeptin and pepstatin. Depending on experiment design, this was supplemented by 3 mM CaCl2 and 1 mM MgCl2, (buffer A) or by 1 mM Na EDTA, pH 7.4 (buffer B). The nucleotide site labeling at 200 pM [^35S]GγS was for 30 min at 28 °C after pre-activation for 30 min at 28 °C at 3 μM GDP in the basal buffer with 50 μM EDTA, 100 mM NaCl and 4 mM MgCl2, and without CaCl2 (buffer C). All subsequent operations were carried out at 0–5 °C. The assays were terminated by sedimentation for 10 min at 30,000× gmax, followed by surface wash of the pellets.
as §1, with “0.99). […]” for “0.99).”

[3] = target: rabbit Y2 receptor, native (rabbit (endogenous in kidney cortex, hypothalamus, piriform cortex)); assay: radioligand binding; competition of PYY(3–36) with [125I]PYY(3–36), rabbit kidney particulates, entire receptor complement
[4] = target: rabbit Y2 receptor, native (rabbit (endogenous in kidney cortex, hypothalamus, piriform cortex)); assay: radioligand binding; competition of PYY(3–36), rabbit kidney particulates after extraction with 8 mM cholate at 0–5 °C (>90% dimeric residue), trypsin up to 3 μg/mL
[5] = target: rabbit Y2 receptor, native (rabbit (endogenous in kidney cortex, hypothalamus, piriform cortex)); assay: radioligand binding; aliquots of gradient fractions of labeled rabbit kidney particulates precipitated with 10% polyethyleneglycol-8000 at 300 mM KCl or KI and 50 μg/mL bovine γ-globulin, 10 min at 0–4 °C
[6] = system: Y2 receptor aggregates (rabbit kidney); assay: Y2 receptor aggregates, sedimentation after treatment, rabbit kidney particulates; format: biochemical; conditions: 15 min at 24 °C
Description: (§2) Figure 5. […] Particulates from rabbit kidney (A) and anterior hypothalamus (B) were incubated with 20 μM GγS or 10 μM U73122 for 15 min at 24 °C, sedimented, resuspended, labeled with 50 pM [^125I]hPYY(3–36) for 15 min at 24 °C, resedimented, lysed at 10 mM each digitonin and cholate and sedimented through a 10%–30% linear sucrose gradient for 6 h at 218,000× g and 5 °C, followed by gradient fractionation and counting. TEXT PRINTED IN THE PICTURE: (A) GγS: Bottom count: 10.8% | (A) U73122: Bottom count: 25.4% | (B) GγS: Bottom count: 8.98 % | (B) U73122: Bottom count: 17.4 %
as §1

[7] = system: Y2 receptor aggregates (anterior hypothalamus); assay: Y2 receptor aggregates, sedimentation after treatment, rabbit anterior hypothalamus particulates; format: biochemical; conditions: 10 μM, 15 min at 24 °C, 10%–30% gradient 6 h at 218,000× g
Description: as §2
as §1, with “The sedimentation positions were calibrated with [^125I]-labeled bovine γ-globulin (158 kDa), human iron-saturated transferrin (75 kDa) and ovalbumin (44 kDa), and with colorized myosin (211 kDa), producing a linear relation of migration to molecular weight (R^2 > 0.99).” left out

[8] = system: aggregated Y2 receptor material (rabbit kidney and CHO-Y2 particulates); assay: Release of aggregated Y2 receptor material (bottom of 5%–20% gradients); format: biochemical; conditions: 10 μM, preliminary experiment
Description: More than 30% of the Y2 binding in rabbit kidney postmitochondrial particulates, and more than 20% in the CHO-Y2 postnuclear particulates sediments to the bottom of 5%–20% sucrose gradients over 18 h at 218,000× gmax, corresponding to weight in excess of 1000 kDa. A large part of this material sediments at 30,000× gmax over 10 min, and could be considered as aggregated. […] This preliminary experiment points to potential of such procedures in quantitation of effector-associated receptors at the level of dimers and monomers. There also is a promise of gaining more insight on the size and significance of receptor oligomers incorporating more than two receptor monomers.
as §1

Y4 receptor = conditions: cited from earlier work
From the text: (§3) The classical view of agonist binding assumes an attachment that is readily terminated by dilution or competition by ligands of higher affinity, such as competitive antagonists. The weak agonist binding for small ligand receptors, such as catecholamine receptors, greatly diminishes analytical options. This has signally contributed to the analytical success of covalent proteinaceous tags. However, many GPCRs with peptidic agonists show agonist attachments that are stable at least at low temperatures, and slow to dissociate even at 37 °C. Such stable (“quasi-irreversible”) binding was found for ...

neuromedin U receptors = conditions: cited from earlier work
From the text: as §3

endothelin-1 receptor = conditions: cited from earlier work
From the text: as §3

[9] = system: human calcitonin receptor; conditions: cited from earlier work
From the text: as §3

[10] = system: rabbit kidney Y2 receptor; assay: PYY(3–36) binding to rabbit kidney Y2 receptor (heteropentamer and monomer forms)
Description: The receptors were labeled for 30 min at 25 °C in respective particulates (50 μg protein/assay), employing not more than 50 pM [^125I]-labeled agonist peptides (as stated in individual experiments). […] The basal assay buffer contained 0.2% proteinase-free bovine serum albumin, 20 mM hepes.NaOH (pH 7.4), 1 mM diisopropylfluorophosphate, 0.04% bacitracin, and 10 μg/mL each of proteinase inhibitors aprotinin, bestatin, chymostatin, leupeptin and pepstatin. Depending on experiment design, this was supplemented by 3 mM CaCl2 and 1 mM MgCl2, (buffer A) or by 1 mM Na EDTA, pH 7.4 (buffer B). The nucleotide site labeling at 200 pM [^35S]GγS was for 30 min at 28 °C after pre-activation for 30 min at 28 °C at 3 μM GDP in the basal buffer with 50 μM EDTA, 100 mM NaCl and 4 mM MgCl2, and without CaCl2 (buffer C). All subsequent operations were carried out at 0–5 °C. The assays were terminated by sedimentation for 10 min at 30,000× gmax, followed by surface wash of the pellets.

Y1 receptor = conditions: cited from earlier work
From the text: as §3

Y2 receptor = conditions: cited from earlier work
From the text: The classical view of agonist binding assumes an attachment that is readily terminated by dilution or competition by ligands of higher affinity, such as competitive antagonists. The weak agonist binding for small ligand receptors, such as catecholamine receptors, greatly diminishes analytical options.

[11] = target: the molecule itself; assay: sucrose density gradient centrifugation; CHO-Y2 particulates preincubated in assay buffer at 27 °C (1 h or 3 h) or in ice (3 h), labeled 20 min at 27 °C with [125I]PYY(3–36), solubilised at 10 mM each digitonin and cholate, 5%–20% sucrose gradients, 18 h at 5 °C, 218,000 x gmax
[12] = target: B1; assay: radioligand binding; competition against [125I]PYY(3–36) at the hY2 receptor; conditions not given; conditions: one partner purified

Molecule: Nc1nc2c(ncn2[C@@H]2O[C@H](COP(=O)(O)OP(=O)(O)O)[C@@H](O)[C@H]2O)c(=O)[nH]1 [GDP]
- conversion of 180 kDa heteropentamer [2]: does convert to immunoprecipitable 90 kDa Gi3α-receptor monomer

Molecule: human peptide YY(3–36) (from UniProt P10082 31-64)
- IC50 [3]: 0.2 to 0.5 nM
- IC50 [4]: 0.01 nM

Molecule: C[C@H](CCC(=O)[O-])[C@H]1CC[C@H]2[C@@H]3[C@H](O)C[C@@H]4C[C@H](O)CC[C@]4(C)[C@H]3C[C@H](O)[C@]12C.[Na+] [sodium cholate]
- effect on Y2 agonist bound to 90 kDa monomer-Gi α ([1]; 8 mM cholate at 0–5 °C): detached
- effect of sodium cholate on activated monomers ([1]; rabbit kidney particulates): removes activated monomers

Molecule: pancreatic polypeptide
- stability of agonist binding (Y4 receptor): quasi-irreversible

Molecule: neuromedin U (FRVDEEFQSPFASQSRGYFLFRPRN; ends and bridges not checked; UniProt P48645 142-166, looked up) [agonist at its receptors]
- stability of agonist binding (neuromedin U receptors): quasi-irreversible

Molecule: endothelin
- stability of agonist binding (endothelin-1 receptor): quasi-irreversible

Molecule: salmon calcitonin
- stability of agonist binding [9]: quasi-irreversible

Molecule: trypsin
- Bmax for the dimeric Y2 in the cholate residue ([10]; above 0.3 μg trypsin): increases significantly
- effect on affinity of PYY(3–36) binding to dimeric residue ([10]; trypsin at up to 3 μg/mL, cholate residue): unaffected
- stability of heteropentamers to trypsin ([1]; rabbit kidney particulates): considerable stability

Molecule: neuropeptide Y [NPY]
- stability of agonist binding (Y1 receptor): quasi-irreversible
- stability of agonist binding (Y2 receptor): quasi-irreversible

Molecule: B1
- stoichiometry N [11]: 2

The next lines start with the values.

- sensitivity of 180 kDa labeled material to K^+ [1]: not sensitive
Molecule: [I-].[K+] [KI]

- percent of the 180 kDa labeled material precipitated at 10% PEG [5]: > 80%
Molecule: [125I]human peptide YY(3–36) (from UniProt P10082 31-64)

- main form yielded from Y2 receptor aggregates ([6]; particulates from rabbit tissues (kidney and anterior hypothalamus), GγS 20 μM or U73122 10 μM): largely the heteropentamer
- Bottom count ([6]; rabbit kidney, 10 μM, 10%–30% gradient 6 h at 218,000× g): 25.4%
- Bottom count [7]: 17.4%
- part of aggregated material released [8]: About a third
Molecule: COc1ccc2c(c1)CC[C@@H]1[C@@H]2CC[C@]2(C)[C@@H](NCCCCCCN3C(=O)C=CC3=O)CC[C@@H]12 [U73122]

- effect on Y2 agonist bound to 90 kDa monomer-Gi α ([1]; 0.3 M KCl): detached
- sensitivity of 180 kDa labeled material to K^+ [1]: not sensitive
Molecule: [Cl-].[K+] [KCl]

- Kd [12]: 6.2 ± 1.2 nM
B2: NPY(22–36) (peptide, UniProt P01303 50-64, looked up)
peptide: SALRHYINLITRQRY
notes: neuropeptide Y, residues 22-36; also called neuropeptide Y(22–36)
